Laboratory results taken from patent US8921370B2, “Bicyclo[3.2.1]octyl amide derivatives and uses of same” (H. Lundbeck A/S, priority 2010, dated 2014).

Key:
hmGluR5 [1] = target: T1, hmGluR5 (Homo sapiens (Human), UniProt P41594); assay: Calcium mobilization assay (FLIPR), negative allosteric activity, EC80 glutamate; type: cell-based; settings: HEK 293 cells expressing hmGluR5; for Emax: HEK293, FLIPR maximum inhibition of EC80 glutamate response, read-out: hmGlu5 FLIPR % inhibition; for IC50: inhibition of EC80 glutamate response
T1 sequence (P41594 21-1212): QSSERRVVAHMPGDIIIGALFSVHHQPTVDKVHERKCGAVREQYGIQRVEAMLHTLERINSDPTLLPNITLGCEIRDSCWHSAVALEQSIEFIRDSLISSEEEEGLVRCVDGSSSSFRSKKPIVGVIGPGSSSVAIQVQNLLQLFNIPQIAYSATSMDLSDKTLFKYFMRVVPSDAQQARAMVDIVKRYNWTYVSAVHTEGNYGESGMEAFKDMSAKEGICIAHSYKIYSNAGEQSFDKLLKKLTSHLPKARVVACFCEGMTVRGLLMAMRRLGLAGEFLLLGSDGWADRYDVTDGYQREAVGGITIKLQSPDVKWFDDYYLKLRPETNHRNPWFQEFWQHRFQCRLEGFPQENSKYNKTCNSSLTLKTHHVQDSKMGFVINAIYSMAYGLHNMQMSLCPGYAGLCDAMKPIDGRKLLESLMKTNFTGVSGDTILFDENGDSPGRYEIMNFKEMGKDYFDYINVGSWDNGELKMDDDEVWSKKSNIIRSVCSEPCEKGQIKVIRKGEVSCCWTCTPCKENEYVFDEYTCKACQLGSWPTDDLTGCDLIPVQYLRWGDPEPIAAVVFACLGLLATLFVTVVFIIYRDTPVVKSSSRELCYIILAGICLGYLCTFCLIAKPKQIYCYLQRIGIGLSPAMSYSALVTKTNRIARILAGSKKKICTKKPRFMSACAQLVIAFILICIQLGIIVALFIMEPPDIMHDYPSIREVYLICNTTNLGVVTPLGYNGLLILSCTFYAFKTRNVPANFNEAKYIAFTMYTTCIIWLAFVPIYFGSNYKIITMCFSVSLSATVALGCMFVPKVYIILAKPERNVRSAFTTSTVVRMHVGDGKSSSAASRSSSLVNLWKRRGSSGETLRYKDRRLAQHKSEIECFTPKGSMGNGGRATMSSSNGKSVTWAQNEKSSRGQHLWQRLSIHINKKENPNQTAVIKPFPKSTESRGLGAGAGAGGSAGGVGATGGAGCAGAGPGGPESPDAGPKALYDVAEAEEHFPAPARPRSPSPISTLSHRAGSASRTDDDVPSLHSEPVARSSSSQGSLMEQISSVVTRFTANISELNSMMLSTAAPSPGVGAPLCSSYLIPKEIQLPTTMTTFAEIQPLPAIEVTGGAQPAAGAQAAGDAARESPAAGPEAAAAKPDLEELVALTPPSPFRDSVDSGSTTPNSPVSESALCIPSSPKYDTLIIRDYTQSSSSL
Procedure: The cDNA for rat metabotropic glutamate receptor 5 (rmGluR5) and the cDNA for human metabotropic glutamate receptor 5 […] gifts from S. Nakanishi (Kyoto University, Kyoto, Japan). […] Twenty-four hours prior to assay, cells were seeded into 384-well black wall microtiter plates coated with poly-D-lysine. […] After excess dye was discarded, cells were washed in assay buffer and layered with a final volume equal to 30 μL/well. […] Laser excitation energy was adjusted so that basal fluorescence readings were approximately 10,000 relative fluorescent units. […] Basal readings derived from negative controls were subtracted from all samples. Maximum change in fluorescence was calculated for each well. Concentration-response curves derived from the maximum change in fluorescence were analyzed by nonlinear regression (Hill equation). A negative modulator can be identified from these concentration-response curves if a compound produces a concentration dependent inhibition of the EC80 glutamate response.

hmGluR5 [2] = target: T1, hmGluR5; assay: Radioligand binding assay (MPEP binding site); settings: radioligand binding to the MPEP site, 5 nM radioligand; Ki by Cheng-Prusoff
Procedure: Binding assays were performed as described in [J. A. O'Brien et al. Mol. Pharmacol., 2003, 64, 731-740] with slight modifications, including that a radioligand that binds to the […] (MPEP) binding site was used in place of [^3H]-MPEP. Briefly, after thawing, the membrane homogenates were resuspended in 50 mM Tris-HCl and 0.9% NaCl binding buffer at pH 7.4 to a final assay concentration of 20 μg is protein/well for radioligand filtration binding. Incubations included 5 nM radioligand, membranes and either buffer or varying concentrations of compound. Samples were incubated for 60 min at room temperature with shaking. Non-specific binding was defined with 10 μM cold MPEP when using the radioligand. After incubation, samples were filtered over a GF/C filter (presoaked in 0.25% polyethyleneimine (PEI)) and then washed 4 times using a Tomtec® Harvester 96® Mach III cell harvester (Tomtec, Hamden, Conn.) with 0.5 mL ice-cold 50 mM Tris-HCl (pH 7.4). IC50 values were derived from the inhibition curve and Ki values were calculated according to the Cheng and Prusoff equation of Ki=IC50/(1+[L]/Kd) described in [Y. Cheng and W. H. Prusoff Biochem. Pharmacol. 1973, 22, 3099-3108] where [L] is the concentration of radioligand and Kd is its dissociation constant at the receptor, derived from the saturation isotherm. The Ki values of compounds of the invention were <10 μM.

| Compound | Emax (hmGluR5 [1]) | IC50 (hmGluR5 [1]) | Ki (hmGluR5 [2]) |
| --- | --- | --- | --- |
| Cc1cccc(C(=O)NC23CCCC(NC(=O)c4cccc(Cl)c4)(CC2)C3)n1 (stereo not drawn) [Example 2, N-(5-(3-chlorobenzamido)bicyclo[3.2.1]octan-1-yl)-6-methylpicolinamide] | 89% | 3.7 nM | 27 nM |
| Cc1cncc(C(=O)NC23CCCC(NC(=O)c4cccc(F)c4)(CC2)C3)n1 (stereo not drawn) [Example 6, 6-Methyl-pyrazine-2-carboxylic acid [5-(3-fluoro-benzoylamino)-bicyclo[3.2.1]oct-1-yl]-amide] | 92% | 9 nM | 78 nM |
| Cc1ncc(C(=O)NC23CCCC(NC(=O)c4cccc(Cl)c4)(CC2)C3)s1 (stereo not drawn) [Example 15, N-(5-(3-chlorobenzamido)bicyclo[3.2.1]octan-1-yl)-2-methylthiazole-5-carboxamide] | 88% | 26 nM | 340 nM |
| Cc1cccc(C(=O)NC23CCCC(NC(=O)c4ccncc4)(CC2)C3)c1 (stereo not drawn) [Example 36, N-(5-(3-methylbenzamido)bicyclo[3.2.1]octan-1-yl)isonicotinamide] | 87% | 35 nM | 280 nM |
| Cc1cccc(C(=O)N[C@@]23CCC[C@@](NC(=O)c4ccccn4)(CC2)C3)n1 [Example 126, 6-Methyl-pyridine-2-carboxylic acid {(1S,5R)-5-[(pyridine-2-carbonyl)-amino]-bicyclo[3.2.1]oct-1-yl}-amide] | 86% | 0.32 nM | 39 nM |
| Cc1cncc(C(=O)N[C@]23CCC[C@](NC(=O)c4cccc(F)c4)(CC2)C3)n1 [Example 160, 6-Methyl-pyrazine-2-carboxylic acid [(1R,5S)-5-(3-fluoro-benzoylamino)-bicyclo[3.2.1]oct-1-yl]-amide] | 89% | 3.9 nM | 35 nM |
| Cc1cncc(C(=O)N[C@@]23CCC[C@@](NC(=O)c4cccc(F)c4)(CC2)C3)n1 [Example 161, 6-Methyl-pyrazine-2-carboxylic acid [(1S,5R)-5-(3-fluoro-benzoylamino)-bicyclo[3.2.1]oct-1-yl]-amide] | 90% | 134 nM | 1200 nM |
| Cc1cccc(NC(=O)C23CCCC(NC(=O)c4nc(C)cs4)(CC2)C3)n1 (stereo not drawn) [Example 171, 4-methyl-N-(5-(6-methylpyridin-2-ylcarbamoyl)bicyclo[3.2.1]octan-1-yl)thiazole-2-carboxamide] | 94% | 4.7 nM | 65 nM |
| Cc1cccc(NC(=O)C23CCCC(NC(=O)c4cccc(Cl)c4)(CC2)C3)n1 (stereo not drawn) [Example 176, 5-(3-chlorobenzamido)-N-(6-methylpyridin-2-yl)bicyclo[3.2.1]octane-1-carboxamide] | 91% | 33 nM | 500 nM |
| Cc1cccc(C(=O)NC23CCCC(C(=O)Nc4ccnc(C)n4)(CC2)C3)n1 (stereo not drawn) [Example 178, 6-methyl-N-(5-(2-methylpyrimidin-4-ylcarbamoyl)bicyclo[3.2.1]octan-1-yl)picolinamide] | 90% | 38 nM | 370 nM |
